From patent US20200323793A1, “COMBINATION THERAPY COMPRISING A POLYUNSATURATED KETONE AND A CALCINEURIN INHIBITOR” (Avexxin AS, priority 2016, published 2020) come the findings set out here.

In experiment [1] the test system is skin keratinocyte cell line HaCaT. Description: Resazurin assay, HaCaT proliferation and viability, Example 1 (24 hours of treatment). In kind it is cell-based. The settings on record: Homo sapiens, 25 μM alone, read-out: reduction of proliferation and viability of HaCaT cells. How it is done:
(§1) The spontaneously immortalized, nontumorigenic skin keratinocyte cell line HaCaT was maintained in DMEM supplemented with 5% (v/v) FBS, 0.3 mg/ml glutamine and 0.1 mg/ml gentamicin at 37° C. with 5% CO2 in a humidified atmosphere. Subculture using trypsin-EDTA was performed every 3-4 days with split ratio of 1:3-1:4 to ensure actively proliferating cells.
Cells were seeded in 96 well plates in fully supplemented medium at a density of 2500 cells per well. Following 72 hours of cultivation, the cells were starved of serum in 0.25% FBS/DMEM overnight to halt proliferation, synchronize and to increase cell sensitivity to treatment. On day 4, the cells were treated with cPLA2α inhibitor Compound A1 and immunomodulator Pimecrolimus (Karebay Biochem # Ki0907) and left to incubate for […] in incubator at 37° C. with 5% CO2 in a humidified atmosphere before fluorescence was read at 544 nm excitation and 590 nm emission wavelength. The cells were observed under the microscope to evaluate possible morphology changes and signs of stress before addition of resazurin. The experiments were performed in series of 8 wells per treatment and repeated 2-3 times.

Experiment [2] has the same test system. Nature of the experiment: Resazurin assay, HaCaT cell viability, Example 2 (48 hours of treatment). In kind it is cell-based, human. The settings on record: each alone, dose response over 48 hours. How it is done: as §1
Cells were seeded in 96 well plates in fully supplemented medium at a density of 3000 cells per well. Following 72 hour of cultivation, the cells were starved of serum in 0.25% FBS/DMEM overnight to halt proliferation, synchronize the cells and to increase cell sensitivity to treatment. Next day, the cells were treated with Compound A1 and calcineurin inhibitor Pimecrolimus for 48 hours. Resazurin was added according to the manufacturer's instruction (RnD Systems, UK) and left to incubate for […] in incubator at 37° C. with 5% CO2 in a humidified atmosphere before fluorescence was read at 544 nm excitation and 590 nm emission wavelength. The cells were observed under the microscope to evaluate possible morphology changes and signs of stress before addition of resazurin. The experiments were performed in series of 8 wells per treatment.

As for `CC[C@@H]1/C=C(\C)C[C@H](C)C[C@H](OC)[C@H]2O[C@@](O)(C(=O)C(=O)N3CCCC[C@H]3C(=O)O[C@H](/C(C)=C/[C@@H]3CC[C@H](Cl)[C@H](OC)C3)[C@H](C)[C@@H](O)CC1=O)[C@H](C)C[C@@H]2OC` [Pimecrolimus], in experiment [1], the cytotoxicity at 25 µM was ~15%. For the same compound, the “activity against viability of the cells (dose response)” value in experiment [2] is “active inhibitors”.
